≈ marks a conversion by molar mass, not a printed value.
How the values were obtained:
Format in all cases: functional
Saccharomyces cerevisiae = test: Antifungal activity against Saccharomyces cerevisiae after 16 hrs
Escherichia coli = test: Antibacterial activity against Escherichia coli after 16 hrs
Bacillus subtilis = test: Antibacterial activity against Bacillus subtilis after 16 hrs

SMILES | MIC (Saccharomyces cerevisiae) | MIC (Escherichia coli) | MIC (Bacillus subtilis)
CC1(c2ccc3c(c2)Cc2ccccc2-3)CC(c2ccc3c(c2)Cc2ccccc2-3)=CC=C1C=O (stereo unspecified) | > 100 µg/mL | > 100 µg/mL | > 100 µg/mL
CC1=C(/C=C/C(C)=C/C=C/C2=CC=C(C=O)C(c3ccccc3)C2)C(C)(C)CCC1 (stereo unspecified) | > 100 µg/mL | > 100 µg/mL | > 100 µg/mL
Cc1ccc(C2=CC=C(C=O)C(c3ccc(N(C)C)cc3)C2)o1 (stereo unspecified) | > 100 µg/mL | > 100 µg/mL | > 100 µg/mL
CC1=C(/C=C/C(C)=C/C=C/C2=CC=C(C=O)C(c3ccc(N(C)C)cc3)C2)C(C)(C)CCC1 (stereo unspecified) | > 100 µg/mL | > 100 µg/mL | > 100 µg/mL
CCCCCCC1=CC=C(C=O)C(C)(CCCCCC)C1 (stereo unspecified) | > 100 µg/mL | > 100 µg/mL | > 100 µg/mL
O=CC1=CC=C(c2ccc3ccccc3c2)CC1c1ccccc1 (stereo unspecified) | > 100 µg/mL | > 100 µg/mL | > 100 µg/mL
CC1CC(c2ccc3ccccc3c2)=CC=C1C=O (stereo unspecified) | > 100 µg/mL | > 100 µg/mL | > 100 µg/mL
CC1=C(/C=C/C2=CC=C(C=O)C(C)C2)C(C)(C)CCC1 (stereo unspecified) | > 100 µg/mL | > 100 µg/mL | > 100 µg/mL
Cc1ccc(-c2ccc(C=O)c(-c3ccc([N+](=O)[O-])cc3)c2)o1 | > 100 µg/mL | > 100 µg/mL | > 100 µg/mL
CC(C)=CC[C@H]1C(C)=CC=C(C=O)[C@H]1c1ccc(N(C)C)cc1 | > 100 µg/mL | > 100 µg/mL | > 100 µg/mL
CC(C)=CCC/C(C)=C/CCC1=CC=C(C=O)C(C)(CC/C=C(\C)CCC=C(C)C)C1 (stereo unspecified) | > 100 µg/mL | > 100 µg/mL | > 100 µg/mL
CC1=C(/C=C/C2=CC=C(C=O)C(C)(/C=C/C3=C(C)CCCC3(C)C)C2)C(C)(C)CCC1 (stereo unspecified) | > 100 µg/mL | > 100 µg/mL | > 100 µg/mL
CC1(c2cccs2)CC(c2cccs2)=CC=C1C=O (stereo unspecified) | > 100 µg/mL | > 100 µg/mL | > 100 µg/mL
CC(C)=CCCc1ccc(C=O)c(-c2ccc(N(C)C)cc2)c1 | > 100 µg/mL | > 100 µg/mL | > 100 µg/mL
CC1=C(/C=C/C(C)=C/C=C/c2ccc(C=O)c(-c3ccccc3)c2)C(C)(C)CCC1 | > 100 µg/mL | > 100 µg/mL | > 100 µg/mL
O=CC1=CC=C(c2ccc(Cl)s2)CC1c1ccccc1 (stereo unspecified) | > 100 µg/mL | > 100 µg/mL | > 100 µg/mL
CC1(c2ccccc2)CC(c2ccccc2)=CC=C1C=O (stereo unspecified) | > 100 µg/mL | > 100 µg/mL | > 100 µg/mL
O=CC1=CC=C(c2cccs2)CC1c1ccc([N+](=O)[O-])cc1 (stereo unspecified) | > 100 µg/mL | > 100 µg/mL | > 100 µg/mL
CN(C)c1ccc(-c2cc(-c3ccccc3)ccc2C=O)cc1 | > 100 µg/mL | > 100 µg/mL | > 100 µg/mL
CC1=C(/C=C/C2=CC=C(C=O)C(c3ccc(N(C)C)cc3)C2)C(C)(C)CCC1 (stereo unspecified) | > 100 µg/mL | > 100 µg/mL | > 100 µg/mL
CC1=C(/C=C/C2=CC=C(C=O)C(c3ccccc3)C2)C(C)(C)CCC1 (stereo unspecified) | > 100 µg/mL | > 100 µg/mL | > 100 µg/mL
CC(C)=CCCC1=CC=C(C=O)C(c2ccccc2)C1 (stereo unspecified) | > 100 µg/mL | > 100 µg/mL | > 100 µg/mL

Other lines, results leading:

MIC (Saccharomyces cerevisiae) | MIC (Escherichia coli) | MIC (Bacillus subtilis) | SMILES
> 100 µg/mL | > 100 µg/mL | > 100 µg/mL | CC(C)=CCC1CC(C=O)=CC=C1C (stereo unspecified)
> 100 µg/mL | > 100 µg/mL | > 100 µg/mL | CC1=C(/C=C/C(C)=C/C=C/C2=CC=C(C=O)CC2)C(C)(C)CCC1
> 100 µg/mL | > 100 µg/mL | > 100 µg/mL | Cc1ccc(C=O)c(-c2ccc([N+](=O)[O-])cc2)c1
> 100 µg/mL | > 100 µg/mL | > 100 µg/mL | O=CC1=CC=C(c2ccc3ccccc3c2)CC1c1ccc([N+](=O)[O-])cc1 (stereo unspecified)
> 100 µg/mL | > 100 µg/mL | 10 µg/mL (≈ 28.1 µM) | CC1(c2cccs2)CC(c2ccc(-c3ccccc3)cc2)=CC=C1C=O (stereo unspecified)
> 100 µg/mL | > 100 µg/mL | > 100 µg/mL | CC(C)=CCCC1=CC=C(C=O)C(C)C1 (stereo unspecified)
> 100 µg/mL | > 100 µg/mL | > 100 µg/mL | CC1CC(c2ccc3c(c2)Cc2ccccc2-3)=CC=C1C=O (stereo unspecified)
> 100 µg/mL | > 100 µg/mL | > 100 µg/mL | CC1CC(c2ccc(-c3ccccc3)cc2)=CC=C1C=O (stereo unspecified)
> 100 µg/mL | > 100 µg/mL | 10 µg/mL (≈ 41.8 µM) | Cc1ccc(C=O)c(-c2ccc(N(C)C)cc2)c1
> 100 µg/mL | > 100 µg/mL | > 100 µg/mL | CC1=CC=C(C=O)C(c2ccc(N(C)C)cc2)C1 (stereo unspecified)
> 100 µg/mL | > 100 µg/mL | > 100 µg/mL | CN(C)c1ccc(C2CC(c3ccc(-c4ccccc4)cc3)=CC=C2C=O)cc1 (stereo unspecified)
> 100 µg/mL | > 100 µg/mL | > 100 µg/mL | O=CC1=CC=C(c2ccc(-c3ccccc3)cc2)CC1c1ccccc1 (stereo unspecified)
> 100 µg/mL | > 100 µg/mL | > 100 µg/mL | CN(C)c1ccc(C2CC(c3ccccc3)=CC=C2C=O)cc1 (stereo unspecified)
> 100 µg/mL | > 100 µg/mL | > 100 µg/mL | O=CC1=CC=C(c2ccc3c(c2)Cc2ccccc2-3)CC1c1ccccc1 (stereo unspecified)
> 100 µg/mL | > 100 µg/mL | > 100 µg/mL | CN(C)c1ccc(C2CC(c3cccs3)=CC=C2C=O)cc1 (stereo unspecified)

Source: ChEMBL document CHEMBL1156621, “Synthesis and cellular effects of cycloterpenals: cyclohexadienal-based activators of neurite outgrowth” (2008)
